Measurements reported in paper PMC3816002 (Biochimica et biophysica acta, 2013).

Biological target: T1, CIITA (Homo sapiens, UniProt P33076, G420A/G425A/K426E)
T1 sequence (P33076 1-1130 G420A/G425A/K426E): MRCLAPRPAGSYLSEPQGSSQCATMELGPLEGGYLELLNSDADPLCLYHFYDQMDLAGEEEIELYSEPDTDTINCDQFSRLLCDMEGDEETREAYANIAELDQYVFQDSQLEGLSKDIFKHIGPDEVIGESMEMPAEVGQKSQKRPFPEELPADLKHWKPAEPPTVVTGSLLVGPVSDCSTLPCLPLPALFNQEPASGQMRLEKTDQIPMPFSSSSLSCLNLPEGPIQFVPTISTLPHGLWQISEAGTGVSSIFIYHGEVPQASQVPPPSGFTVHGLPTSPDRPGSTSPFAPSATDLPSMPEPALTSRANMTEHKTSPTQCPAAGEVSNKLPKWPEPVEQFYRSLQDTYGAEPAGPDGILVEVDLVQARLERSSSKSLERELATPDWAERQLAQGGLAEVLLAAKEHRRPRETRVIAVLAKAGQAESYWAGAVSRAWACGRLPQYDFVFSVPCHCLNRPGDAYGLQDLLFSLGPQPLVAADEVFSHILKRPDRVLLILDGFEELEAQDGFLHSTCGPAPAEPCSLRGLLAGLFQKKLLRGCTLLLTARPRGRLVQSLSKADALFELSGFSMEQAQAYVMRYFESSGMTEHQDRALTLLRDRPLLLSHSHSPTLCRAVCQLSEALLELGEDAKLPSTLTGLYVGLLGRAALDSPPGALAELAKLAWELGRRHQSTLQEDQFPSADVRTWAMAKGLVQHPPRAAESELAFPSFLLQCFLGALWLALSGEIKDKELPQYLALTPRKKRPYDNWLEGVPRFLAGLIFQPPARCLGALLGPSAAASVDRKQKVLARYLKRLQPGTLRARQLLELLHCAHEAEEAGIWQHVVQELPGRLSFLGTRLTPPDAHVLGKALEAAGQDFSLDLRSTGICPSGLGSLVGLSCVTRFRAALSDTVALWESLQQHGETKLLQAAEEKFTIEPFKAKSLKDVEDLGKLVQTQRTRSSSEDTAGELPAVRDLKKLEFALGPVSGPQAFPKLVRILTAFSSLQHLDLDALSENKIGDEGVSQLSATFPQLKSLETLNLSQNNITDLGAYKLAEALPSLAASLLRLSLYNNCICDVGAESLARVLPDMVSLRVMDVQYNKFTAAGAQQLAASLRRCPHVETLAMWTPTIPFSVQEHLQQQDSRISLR
Assay: […] autophosphorylation kinase assay, SDS-PAGE, phosphorimager
Type: biochemical
Conditions: labelled compound; 5 mM MnCl2, 5 mM MgCl2, pH 7.5, 30 °C

Question: With Nc1ncnc2c1ncn2[C@@H]1O[C@H](COP(=O)(O)OP(=O)(O)OP(=O)(O)O)[C@@H](O)[C@H]1O [ATP] as the compound, how does the “32P autophosphorylation kinase assay, SDS-PAGE, phosphorimager” value read?
Answer: The value was “No loss of kinase activity was detected in the putative ATP binding site mutant”.
